In US7906518B2, “Therapeutic compounds” (CBT Development Limited, priority 2006, dated 2011):

What was measured:
[1] = tested on: streptozocin induced static allodynia; test: streptozocin-induced diabetic neuropathy, static allodynia (von Frey hairs); format: in vivo; details: rats
Procedure: Diabetes was induced by a single i.p. injection of 50 mg/kg streptozocin (Sigma, 50 mg/ml/kg in citrate buffered saline 33 mM pH 4.5). Control animals received single i.p. injection of citrate buffered saline.

[2] = biological target: adenosine A2A receptor (Homo sapiens, UniProt P29274); test: EC50 at the adenosine A2A receptor; format: biochemical
[3] = monkey, multiple oral dosing, 14C-labelled; cited from earlier work

Sequence of adenosine A2A receptor (P29274 whole entry): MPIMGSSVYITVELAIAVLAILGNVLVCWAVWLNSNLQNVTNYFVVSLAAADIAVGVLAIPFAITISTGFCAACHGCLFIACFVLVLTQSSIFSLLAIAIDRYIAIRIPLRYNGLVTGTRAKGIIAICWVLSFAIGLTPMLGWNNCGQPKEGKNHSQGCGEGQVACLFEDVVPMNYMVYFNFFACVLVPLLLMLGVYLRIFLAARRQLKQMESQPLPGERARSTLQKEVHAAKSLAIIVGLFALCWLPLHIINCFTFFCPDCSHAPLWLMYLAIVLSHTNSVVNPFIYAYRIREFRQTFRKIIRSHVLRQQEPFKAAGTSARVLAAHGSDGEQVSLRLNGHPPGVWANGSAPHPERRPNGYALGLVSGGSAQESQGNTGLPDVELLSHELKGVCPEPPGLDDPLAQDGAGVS

SMILES	reversal of streptozocin induced static allodynia (PWT), all doses ([1]; 0.6-[…] po)	reversal of streptozocin induced static allodynia (PWT), top dose ([1]; top dose […] po)	EC50 [2]	drug level in red blood cells compared to Ribavarin [3]	drug level in the liver compared to Ribavarin [3]
COc1nc(N)c2ncn([C@@H]3O[C@H](CO)[C@@H](O)[C@H]3O)c2n1 [Spongosine, 2-methoxyadenosine]	All doses were effective at reversing allodynia	fully reversed the allodynia	~1000 nM	–	–
N=C(N)c1ncn([C@@H]2O[C@H](CO)[C@@H](O)[C@H]2O)n1 [Viramidine]	–	–	–	only half in red blood cells	three times the drug level in the liver
